Measurements taken from patent publication US20060247156A1, “Use of neuropeptides for ligament, cartilage, and bone healing” (priority 2004, published 2006).
Where “and” joins values, the source holds several entries; their conditions need not be identical. Equal entries are not always repeated. Entries after “also recorded” stand apart in the source; their conditions may differ.

How the values were obtained:
MCL [1] = details: cited from earlier work
MCL [2] = assay: MCL organ culture with capsaicin, mechanical testing; parameters: species or system rat
intact and healing MCLs = assay: Intact and healing MCL after in vivo capsaicin: mechanical testing, healing, histomorphology; parameters: species or system rat
Procedure: In Group 2, control rats (n=6) were injected with an equal volume of 0.9% saline. […] These rats were also divided into two groups. […] After 3 days of treatment, both groups underwent a surgical rupture of one MCL. Contralateral MCLs were used as sham controls. All rats were maintained in their normal cage environment for 10 days. Then, they were sacrificed as noted above. Femur-MCL-tibia (FMT) complexes were then harvested and tested as above.
Injections were made into a site between the scapulae. […] Bupivicaine was also administered subcutaneously at the site of the capsaicin injection. […] Into Group 2 (n=6 animals) and Group 4 (n=9 animals), a similar volume of sterile saline was injected via the same method. All other medications were given as in the treated groups. There were no signs of infection, discomfort, or unusual behavior in the treated rats. […] Contralateral legs were used as sham controls.
Mechanical Testing: Mechanical testing was performed as described in the previous examples. Briefly, animal hind limbs from all groups (n=4 Group 1; n=4 Group 2; n=4 Group 3; n=4 Group 4) were disarticulated at the hip joint and stored at −80° C. until testing. On the day of testing, MCLs including intact femoral and tibial bone sections were excised for ex vivo testing. Ligament thickness and width was measured optically, and MCL area was estimated with elliptical geometry. For strain measurements, optical markers were placed onto the ligament tissue near the insertion sites. A small preload of 0.1N was applied to the ligaments in order to obtain a uniform starting point. The ligaments were then preconditioned to 1% strain for 10 cycles. After preconditioning, ligaments were pulled to failure at a rate of ˜10% per second. Tissue displacement was obtained using video dimensional analysis using equations (1) and (2) infra. The mechanical properties that were examined in this study were maximum force, ultimate stress, strain at failure, elastic modulus, and area. Statistical analysis was performed using an unpaired t-test (p=0.05) to analyze differences between the control and treatment group.
(§1) Ligaments were immediately fixed in formalin fixative for three days at room temperature. Specimens were embedded in paraffin, sectioned (6 μm), mounted on slides, and stained with hematoxylin and eosin (H&E).

[3] = system: MCL neuropeptide concentration (SP, CGRP, NPY, VIP); assay: Neuropeptides in MCL after capsaicin (RIA, immunofluorescence); type: in vivo, rat
Procedure: Injections were made into a site between the scapulae. […] Into Group 2 (n=6 animals) and Group 4 (n=9 animals), a similar volume of sterile saline was injected via the same method. All other medications were given as in the treated groups. […] Contralateral legs were used as sham controls.
Neuropeptide Radioimmunoassay: Four MCLs from all groups were used for quantification of neuropeptide concentrations via RIA. MCLs were homogenized using a mortar and pestle.
Each ligament was then incubated in two […] appropriately tagged (AMCA or Rhodamine; Chemicon, Temecula, Calif.) secondary antibodies.

[4] = system: bovine articular chondrocytes; assay: Bovine chondrocytes glycosaminoglycan assay (DMMB); type: cell-based; details: NPY 50 ng/ml; Day 3 of treatment; individual wells
Procedure: (§2) Cartilage chunks were then digested at 37° C. in DMEM containing 0.05% hyaluronidase for 30 minutes, followed by 0.05% collagenase digestion overnight. The digests were filtered through 40-micron nylon mesh and centrifuged at 600×g for 20 minutes. The cell pellets were then resuspended in DMEM and counted using a hemacytometer.
(§3) Cells were plated at 1×10^5 cells/well in 12-well plates (n=9) for proteoglycan assays and at 2×10^4 cells/well in 96-well plates (n=16) for proliferation assays. The culture volumes were 1 ml/well in 12-well plates and 100 μl/well in 96-well plates.
(§4) The plates were incubated at 37° C. in a humidified CO2 incubator for 3 days to allow the cells to recover from the harvesting procedure.
(§5) On Day 3 of treatment, 20 μl of CellTiter 96® AQueous One Solution Cell Proliferation Assay (Promega Corporation, Madison, Wis.) was added to each well of the 96-well cultures for 60 minutes, and cells in the 12-well plates were digested with 0.125 units of papain/well overnight. After the 60-minute incubation, the absorbance of the color generated by the cells in the 96-well plates was measured at wavelength 490 nm.
Following papain digestion of the cultures in 12-well plates, the amount of glycosaminoglycan (representative of proteoglycans) in each well was measured using the dimethylmethylene blue (DMMB) dye-binding assay. The results were statistically analyzed and plotted.

[5] = system: Bovine nucleus pulposus cells; assay: Bovine nucleus pulposus (intervertebral disc) cell proliferation; type: cell-based; details: CGRP 10 ng/ml, NPY (mcg/ml, SP 5 mcg/ml); day 1, day 2, day 3
Procedure: Bovine calf spines and femoral condyles were obtained from a slaughterhouse and freshly transported to the laboratory. Nucleus pulposus tissue was carefully dissected, avoiding annular and endplate cartilage tissues, from each disc. Articular cartilage from femoral condyles was dissected in the same manner. […] Cells were harvested by overnight digestion with hyaluronidase and collagenase, followed by filtration. Cells were plated at a density of 1×10^5 cells/ml and incubated at 37° C. in 5% CO2 and 95% air in the presence of each neuropeptide or media only (control). At various time points in growth, cells were collected for proliferation and glycosaminoglycan (GAG) production assays. Varying concentrations of NPs were examined.
Well established colorimetric and luminescent assays (CellTiter 96® AQueous Non-radioactive Cell Proliferation and CellTiter-Glo® Luminescent Cell Viability Assays, Promega, Madison, Wis.) were used to quantify the effect of each NP on cell proliferation. In addition, corresponding cell cultures during growth were digested with papain to release glycosaminoglycans (GAGs). Dimethyl methylene blue (DMMB) colorimetric assays were used to quantify the amount of GAGs in each culture.
Multiple samples for test and control groups were performed simultaneously. Statistical analyses using one way analysis of variance (ANOVA) with large degrees of freedom (n=12 for GAG assays; n=24 for proliferation assays) were performed to establish the significance of differences between test groups and control groups for each day of growth in culture.
The effect of neuropeptides on intervertebral disc cell proliferation was examined in order to elucidate further the pathophysiology of degenerative disc disease. Bovine nucleus pulposus cells were incubated with the same neuropeptides.

[6] = system: ruptured MCL of a surgical sympathectomy (SS) rat; assay: Local neuropeptide delivery to ruptured MCL of surgical sympathectomy (SS) rats: mechanical testing, histomorphology; type: in vivo
From the text: Surgical Procedure: Thirteen female Wistar rats (306 g to 339 g) were divided into two groups: surgical sympathectomy (SS) or sham control. All rats were anesthetized with isofluorane as described in Example 1. A transperitoneal approach was used. The lower abdomen was shaved and prepared for surgery. A skin incision approximately 25 mm long was made. Fascia and abdominal muscle were incised. Abdominal organs were displaced. With the aid of a dissecting microscope, fascia surrounding the deep muscle tissue was separated (with minimal disruption to the muscle tissue) to expose the post-ganglionic sympathetic nerves. The L1-4 nerves were isolated and transected (with removal of a 5 mm segment of the nerves) in the surgical sympathectomy group only. In both groups, the deep muscle tissue was returned to its initial position and abdominal organs were replaced. Abdominal muscles and skin were closed in two layers with a 3-0 or 4-0 continuous dexon suture. Rats from each group (n=4 SS; n=3 controls) then underwent a complete surgical rupture of the MCL to one knee. The contra-lateral knee underwent sham surgery. […] Two weeks post-surgery, rats were sacrificed using an overdose of pentobarbitone (150 mg/kg).
Local delivery of NPs and NP inhibitors is important to identify the specific roles of individual NPs on healing tissues. An animal model for the local delivery of NPs has been developed and is presented in this Example. Briefly, NP infused mini-osmotic pumps were implanted subcutaneously into the back of rats. A small catheter running from the pump to an intramuscular space above the MCL was secured to the rat.
To test whether autonomic NPs improve healing in SS-ruptured MCLs, three female Wistar rats (193 g to 204 g) were given VIP locally to the MCL. Vasoactive intestinal peptide (75 pg/μl) was infused into a mini-osmotic pump and was delivered to a ruptured MCL of a surgical sympathectomy (SS) rat (see surgical procedure above). Within minutes of surgical intervention, all rats recovered and had normal movement and behavior (grooming, feeding, etc.). […] The results are presented graphically in FIG. 6.
Animal Model and Surgery: Thirty-seven female Wistar rats (199-298 g) were divided into five groups. […] Rats that were designated to receive SP or CGRP underwent bilateral femoral nerve transection (see previous examples). Rats that were designated to receive NPY, VIP, or a combination of NPY and VIP underwent bilateral surgical sympathectomy. Following surgical nerve transection, each rat also underwent bilateral MCL rupture. Neuropeptides were then delivered ruptured MCLs unilaterally. Neuropeptide infused mini-osmotic pumps (Alzet Corp.) were implanted subcutaneously into the back of each rat. A small catheter running from the pump was run to an intramuscular space above the MCL and was secured. To ensure that neuropeptides are delivered directly to the MCL, rhodamine labeled SP was delivered via a catheter to the MCL (n=2 rats).
Within minutes of surgical intervention, all rats recovered and had normal movement and behavior (grooming, feeding, etc.). To test whether autonomic NPs improve healing in SS ruptured MCLs, seven rats were given VIP, seven rats were given NPY, and seven rats were given a combination of VIP and NPY. […]
Mechanical Testing: Mechanical testing was performed as described in the preceding examples. Briefly, animal hind limbs from all groups (n=4 for all groups) were disarticulated at the hip joint and stored at −80° C. until testing. On the day of testing, MCLs including intact femoral and tibial bone sections were excised for ex vivo testing. Ligament thickness and width was measured optically, and MCL area was estimated with elliptical geometry. For strain measurements, optical markers were placed onto the ligament tissue near the insertion sites. […]

[7] = system: bovine articular chondrocytes; assay: Bovine chondrocytes proliferation assay (CellTiter 96 AQueous One); type: cell-based; details: CGRP 100 pg/ml, NPY 50 ng/ml, SP 500 pg/ml, VIP 1 ng/ml
Procedure: as §2, §3, §4, §5

healing MCL = assay: Local neuropeptide delivery to normally innervated healing MCL: mechanical testing, histomorphology; type: in vivo, rat
Procedure: Animal Model and Surgery: Forty female Wistar rats (200-250 g) were divided into five groups.
All rats underwent bilateral MCL rupture. Neuropeptides were then delivered ruptured MCLs unilaterally. Neuropeptide infused mini-osmotic pumps (Alzet Corp.) were implanted subcutaneously into the back of each rat. A small catheter running from the pump was run to an intramuscular space above the MCL and was secured.
Mechanical Testing: Mechanical testing was performed as described in Chapter 2. Briefly, animal hind limbs from all groups (n=5 for all groups) were disarticulated at the hip joint and stored at −80° C. until testing. On the day of testing, MCLs including intact femoral and tibial bone sections were excised for ex vivo testing. Ligament thickness and width was measured optically, and MCL area was estimated with elliptical geometry. For strain measurements, optical markers were placed onto the ligament tissue near the insertion sites. A small preload of 0.1N was applied to the ligaments in order to obtain a uniform starting point. The ligaments were then preconditioned to 1% strain for 10 cycles. After preconditioning, ligaments were pulled to failure at a rate of 10% per second.
Tissue displacement was obtained using video dimensional analysis using equations (1) and (2) supra. The mechanical properties that were examined in this study were maximum force, ultimate stress, strain at failure, elastic modulus, and area. Statistical analysis was performed using paired ttests to compare each treated MCL to its contralateral control (alpha=0.05).
as §1

[8] = second study, Group 3: capsaicin 50 mg/kg/day x3 days, ruptured MCL, healing
[9] = Group 3: ruptured MCL, capsaicin 50 mg/kg/day for three days, two weeks of healing
[10] = Example 7: normally innervated rats, bilateral MCL rupture, mini-osmotic pump (SP 75, CGRP 10, NPY 65, VIP 100 pg/100 μl), two weeks of healing

## insulin-like growth factor-1
MCL [1]; Provenzano et al., following 30 days of delivery
  healed strength relative to intact ligament: 66%

## COc1cc(CNC(=O)CCCC/C=C/C(C)C)ccc1O [capsaicin]
MCL [2]; organ culture 10 days with capsaicin in media
  ultimate stress: 66.0±4.7 MPa
MCL [2]; organ culture with capsaicin-supplemented media
  ultimate force: no changes
Intact and healing MCLs; capsaicin treated, two weeks of healing
  histomorphology (H&E) of healing MCL: hypercellular and disorganized
Intact and healing MCLs; capsaicin-treated rats with MCL rupture
  healing of MCL and skin wounds (in words): one MCL failed to heal; also recorded: healed poorly
Intact and healing MCLs; first study: capsaicin 50 mg/kg, MCL rupture after 3 days of treatment, n=3
  ultimate stress of the ruptured ligament: 4.6 MPa
Intact and healing MCLs; first study: capsaicin 50 mg/kg, intact MCL, 10 days
  ultimate stress of intact MCLs: substantially reduced
Intact and healing MCLs; following initial recovery from capsaicin injection
  abnormalities in movement, body weight, or behavior: No abnormalities
Intact and healing MCLs; second study, Group 1 vs Group 2, intact MCL
  failure force, ultimate stress, failure strain, area, and elastic modulus of intact MCL: not significantly changed
Intact and healing MCLs; [8]
  failure force: 4.5±2.7 N
  ultimate stress: 2.7±1.9 MPa
[3]; Group 1: intact MCL, capsaicin 50 mg/kg/day s.c. for three days, 10 days after last injection
  CGRP concentration in MCL (RIA): 0.04 pmol/g
[3]; [9]
  CGRP concentration in MCL (RIA): 0.042 pmol/g
  NPY concentration in MCL (RIA): 3.09 pmol/g
  SP concentration in MCL (RIA): 0.09 pmol/g
  VIP concentration in MCL (RIA): 1.07 pmol/g

## platelet-derived growth factor [PDGF]
MCL [1]; Woo et al., after 6 weeks of healing
  healed MCL strength relative to intact ligament strength: 50%

## neuropeptide Y [NPY]
[4]
  Glycosaminoglycan Assay: 7.783 μg/dish and 9.327 μg/dish and 6.2383 μg/dish and 8.055 μg/dish and 7.964 μg/dish and 5.148 μg/dish and 5.784 μg/dish and 7.874 μg/dish and 8.328 μg/dish
[5]
  disc cell proliferation compared to controls: stimulate disc cell proliferation
[6]; Example 6: SS rats, bilateral MCL rupture, mini-osmotic pump (NPY 65 pg/100 μl; VIP 100 pg/100 μl; or both), two weeks of healing
  failure force: 12.2±0.9 N
[6]; SS rats, VIP or NPY, two weeks
  histomorphology (H&E) of healing MCL: more aligned
[6]; neuropathic ruptured MCL, two weeks of healing
  healing response of MCLs relative to intact controls: 70%
[7]
  proliferation of articular chondrocytes compared to controls (in words): stimulate proliferation
Healing MCL; Example 7, two weeks of healing
  histomorphology (H&E) of healing MCL: less of an effect on tissue alignment
Healing MCL; [10]
  failure force: 7.7±1.1 N
  ultimate stress: 5.6±2.2 MPa
